# Patent US9910031B2, “Compositions and methods for modulating c-Rel-dependent cytokine production” (Synta Pharmaceuticals Corporation, priority 2003, dated 2018)
# Key:
# Assay type in all cases: cell-based, human
# p52 = assay: Immunoblot of nuclear p52 in THP1 cells; settings: THP1, IFNg+LPS, 100 nM, 6 h
# Method: (§1) Rel B and p52 are two members of Rel family, which are preferentially complexed with each other. Like p50 and p65, p52 is found in virtually all cell types, whereas c-Rel and Rel B have only been detected in lymphoid tissues. To determine the effect of Compound 2 on p52 and Rel-B nuclear translocation, THP1 cells were stimulated with IFNg+LPS in either the presence or absence of 100 nM Compound 2, and the distribution of p52 and Rel-B was determined by immunoblotting of nuclear at 6 h post-treatment.
# (§2) THP-1 cells were suspended in 20 volumes of buffer A containing 10 mM KCl, 10 mM HEPES (pH 7.9), 1 mM MgCl2, 1 mM dithiothreitol (DTT), 0.1% Nonidet p40 (NP-40), and 0.5 mM phenylmethylsulfonyl fluoride (PMSF) and homogenized and centrifuged at 10,000 rpm at 4 C for 5 min. Nuclear pellets were then suspended in buffer C containing 400 mM NaCl, 20 mM HEPES 9 pH 7.9), 15 mM MgCl2, 0.2 mM EDTA, 1 mM DTT, 25% glycerol, 1 mM PMSF, and 10 ug of leupeptin, 20 ug of pepstatin, and 10 ug/ml antipain, incubated for 30 min at 4 C, and centrifuged at 14,000 rpm for 20 min. The supernatants were dialyzed against buffer D containing 100 mM NaCl, 20 mM HEPES (pH 7.9), 20% glycerol, 1 mM PMSF, and 1 mM DTT.
# (§3) The 10% SDS Polyacrylamide gels (Invitrogen) were transferred to Pure Nitrocellulose membrane (BioRed, Hercules, Calif.). […]
# Rel-B = assay: Immunoblot of nuclear Rel-B in THP1 cells; settings: THP1, IFNg+LPS, 100 nM, 6 h
# Method: as §1, §2, §3
# IκBβ = assay: Inducible degradation of IκBβ, Western blot and FACS analysis; settings: THP-1 and RAW267.4 cells, IFN-γ/LPS or IFN-γ/SAC, 500 nM, 30 min and 2 hrs
# Method: (§4) IκB degradation is one of the steps in the signaling pathway of NFκB dependent genes. The activity of Compound 2 in inducible degradation of IκBα □ and IκBβ was investigated in THP-1 cells using Western blot and FACS analysis. […] Similar results were observed from the Compound 2 pre-treatment samples in which Compound 2 was added […] before stimulation.
# c-Rel [1] = assay: Western blot of nuclear c-Rel in THP-1 cells
# Source text: In order to understand this changes, the subcellular localization of NF-κB proteins was investigated using western blot analysis.
# Of the transcription factors that have been analyzed, two factors, ICSBP and c-Rel, seem to be affected by Compound 1/Compound 2 treatment. ICSBP binds indirectly to the Ets-2 site. The primary NFκB trans-activator for IL-12 is the c-Rel/p50 heterodimer. Other dimers (p65/p50 and p50/p50) either lack activity or have inhibitory functions. Thus, c-Rel plays a role in IL-12 transcription as a result of both activation through NFκB and its interaction with ICSBP. […] The membranes were blocked with 5% milk in TBST buffer and then incubated with anti-c-Rel, anti-p65, anti-p50, anti-ICSBP or anti-PU-1 antibody (all the antibodies were purchased from Santa Cruz) at a dilution of 1:500 for 1 h at room temperature or overnight at 4° C. The membranes were washed and incubated with Horseradish Peroxidase-conjugated anti-rabbit IgG or anti-mouse IgG (Amersham, England) at a dilution of 1:2000 at room temperature for 1 h.
# THP-1 cells were suspended in 20 volumes of buffer A containing 10 mM KCl, 10 mM HEPES (pH 7.9), 1 mM MgCl2, 1 mM dithiothreitol (DTT), 0.1% Nonidet p40 (NP-40), and 0.5 mM phenylmethylsulfonyl fluoride (PMSF) and homogenized and centrifuged at 10,000 rpm at 4 C for 5 min. […]
# IκBα = assay: Inducible degradation of IκBα, Western blot and FACS analysis; settings: THP-1 and RAW267.4 cells, IFN-γ/LPS or IFN-γ/SAC, 500 nM, 30 min and 2 hrs
# Method: as §4
# p65 = assay: ELISA based transcriptional factor-DNA binding activity assay, THP-1 nuclear extracts, p65; settings: IFN-γ/LPS, 500 nm, 3 hrs
# Method: (§5) Nuclear extracts were prepared from IFN-γ-primed THP-1 cells that had been treated with or without SAC and incubated in the presence or absence of 1 μM Compound 1 or 10 mM ASA. Isolation of nuclear extracts was accomplished by first suspending THP-1 cells in 20 volumes of buffer A containing 10 mM KCl, 10 mM HEPES (pH 7.9), 1 mM MgCl2, 1 mM dithiothreitol (DTT), 0.1% Nonidet p40 (NP-40), and 0.5 mM phenylmethylsulfonyl fluoride (PMSF) and then homogenizing and centrifuging at 10,000 rpm at 4° C. for 5 min. Nuclear pellets were then suspended in buffer C containing 400 mM NaCl, 20 mM HEPES pH 7.9), 15 mM MgCl2, 0.2 mM EDTA, 1 mM DTT, 25% glycerol, 1 mM PMSF, and 10 μg of leupeptin, 20 μg of pepstatin, and 10 μg of antipain per ml, incubated for 30 min at 4° C., and centrifuge at 14,000 rpm for […]. The supernatants were dialyzed against buffer D containing 100 mM NaCl, 20 mM HEPES (pH 7.9), 20% glycerol, 1 mM PMSF, and 1 mM DTT.
# (§6) To understand the action of Compound 2 in NF-κB binding, several NF-κB family members, p50, c-Rel and p65 were investigated using an ELISA based transcriptional factor-DNA binding activity assay system. […]
# p50 = assay: ELISA based transcriptional factor-DNA binding activity assay, THP-1 nuclear extracts, p50; settings: IFN-γ/LPS, 500 nm, 3 hrs
# Method: as §5, §6
# c-Rel [2] = assay: ELISA based transcriptional factor-DNA binding activity assay, THP-1 nuclear extracts, c-Rel; settings: IFN-γ/LPS, 500 nm, 3 hrs
# Method: as §5, §6
smiles,measurement,setting,value
"Cc1cccc(C=NNc2cc(N3CCOCC3)nc(OCCc3ccccn3)n2)c1 [Compound 2, N-(3-methyl-benzylidene)-N′-[6-morpholin-4-yl-2-(2-pyridin-2-yl-ethoxy)-pyrimidin-4-yl]-hydrazine]",nuclear p52 (FIG. 11),p52,No significant difference
same,nuclear Rel-B (FIG. 11),Rel-B,slightly increased
same,"amount of IκBβ in the cytoplasm, treated vs untreated",IκBβ,no significant difference
same,amount of c-Rel protein in nuclear,"c-Rel [1]; 500 nM, 3 hr, relative to untreated cells",decreased
same,nuclear c-Rel level (FIG. 4),"c-Rel [1]; THP1, IFN-γ plus LPS or IFN-γ plus SAC",significantly reduced
same,"amount of IκBα in the cytoplasm, treated vs untreated",IκBα,no significant difference
same,binding activity of p65,p65,increased binding activity
same,binding activity of p50,p50,slightly decreased
same,binding activity of c-Rel,c-Rel [2],significantly decreased
